Test results from patent publication US20230046018A1, “BIARYL COMPOUND AS PAN-RAF KINASE INHIBITOR” (MEDSHINE DISCOVERY INC., priority 2019, published 2023).
Read-outs that look alike come from different tables or passages of the source.

Columns and labels:
[1] = tested on: ERK phosphorylation in HCT116(Kras^G13D); assay: HCT116 (Kras^G13D) ERK phosphorylation inhibition (HTRF); format: cell-based, human; conditions: 1 hour with compound, read-out: HCT-116 ERK phosphorylation inhibitory activity IC50
Method: Experiments for HCT116(Kras^G13D) ERK Phosphorylation Inhibition
(§1) 1) cells were resuscitated, cultured to a logarithmic growth phase, then digested with trypsin and seeded in a 96-well plate, and the plate was incubated overnight in an incubator;
(§2) 2) serial gradients of compounds dissolved in DMSO were added to the 96-well plate, which was then put back into the incubator for 1 hour;
3) the cell plate was taken out; the supernatant was removed; and the cells were incubated and lysed by adding cell lysates (containing 1% blocking peptide) for 30 minutes at room temperature;
(§3) 4) 16 μL of cell lysates per well was transferred to the HTRF plate, and then 4 μL of the mixed antibody solution formulated thereby was added;
(§4) 5) after overnight incubation, the plate was read on Envision; the fitted curves were obtained according to ratio (the ratio of Ex665/Ex615 fluorescence intensity); and EC50 was calculated with the four-parameter fitting formula, i.e., Y=Bottom+(Top−Bottom)/(1+10^((LogEC50−X)*Hill Slope)) on Graphpad.

[2] = tested on: HCT-116(Kras^G13D); assay: HCT-116 (Kras^G13D) antiproliferative activity (CellTiter Glo); format: cell-based; conditions: HCT-116 (Kras^G13D) cells, three days
Method: Experiments for HCT-116(Kras^G13D) Antiproliferative Activity
(1) cell medium: 89% Mc'Coy 5A, 10% fetal bovine serum and 1% penicillin-streptomycin;
(2) the original medium in the cell culture flask was removed; the cells were digested with trypsin and then counted; and the cell suspension was diluted with the medium to a cell density of 2.5×10^4 cells per milliliter required for plating;
(§5) (3) 100 μL of the medium was added to the outermost circle of wells of the cell plate; 80 μL of the cell suspension was added to other wells; and the plate was cultured overnight in a 37° C. incubator with 5% CO2.
the compounds were subjected to a gradient dilution and then supplemented; and the cell plate was put back into the incubator for three days.
(§6) adding CTG and reading the plate involve adding 20 μL of CellTiterGlo to each well of the cell plate, shaking the plate for 10 min in the dark, and reading the plate on Victor Nivo.

[3] = target: T1, cRAF protein (Homo sapiens, UniProt P04049); assay: c-RAF enzyme inhibitory activity (ADP-Glo, MEK1 substrate); format: biochemical; conditions: MEK1 and ATP substrate
T1 construct: purchased Creative BioMart RAF1-416H
T1 sequence (P04049 whole entry): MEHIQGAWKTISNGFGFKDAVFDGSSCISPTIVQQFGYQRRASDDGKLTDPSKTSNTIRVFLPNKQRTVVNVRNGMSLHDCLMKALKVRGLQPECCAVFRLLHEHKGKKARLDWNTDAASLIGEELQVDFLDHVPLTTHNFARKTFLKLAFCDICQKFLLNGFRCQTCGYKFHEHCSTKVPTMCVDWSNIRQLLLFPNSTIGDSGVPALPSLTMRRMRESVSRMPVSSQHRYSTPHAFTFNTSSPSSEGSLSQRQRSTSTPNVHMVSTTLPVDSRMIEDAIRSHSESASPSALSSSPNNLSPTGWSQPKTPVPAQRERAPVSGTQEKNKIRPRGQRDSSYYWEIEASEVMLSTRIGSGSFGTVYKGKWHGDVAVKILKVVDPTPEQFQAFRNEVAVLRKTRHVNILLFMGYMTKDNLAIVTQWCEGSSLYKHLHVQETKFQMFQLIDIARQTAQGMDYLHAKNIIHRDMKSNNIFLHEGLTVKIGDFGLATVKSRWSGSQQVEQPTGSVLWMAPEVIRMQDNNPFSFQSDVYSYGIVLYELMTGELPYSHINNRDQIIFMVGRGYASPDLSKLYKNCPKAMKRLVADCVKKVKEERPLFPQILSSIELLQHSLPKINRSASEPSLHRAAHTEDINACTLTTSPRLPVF
Method: Experiments for c-RAF Enzyme Inhibitory Activity
the compounds to be tested and reference compounds were diluted to 100 μM with DMSO, and the compounds were further subjected to a 3-fold gradient dilution using Echo to obtain target plates with 11 concentration gradients.
1) buffer formulation: 50 mM Tris-HCl (pH 7.4), 3.5 mM MgCl2, 150 mM NaCl, 1 mM DTT, 0.02% Triton X-100, H2O;
7) after 1 hour, the plate was read on Envision.

[4] = tested on: ERK phosphorylation in Ca1u-6(Kras^Q61K); assay: Ca1u-6 (Kras^Q61K) ERK phosphorylation inhibition (HTRF); format: cell-based, human; conditions: 1 hour with compound, read-out: Calu-6 ERK phosphorylation inhibitory activity IC50
Method: Experiments for Ca1u-6(Kras^Q61K) ERK Phosphorylation Inhibition
as §1, §2
3) the cell plate was taken out; and the cells were incubated and lysed by adding cell lysates (containing 1% blocking peptide) for 30 minutes at room temperature;
as §3, §4

[5] = tested on: Ca1u-6 (Kras^Q61K); assay: Ca1u-6 (Kras^Q61K) antiproliferative activity (CellTiter Glo); format: cell-based, human; conditions: Ca1u-6 (Kras^Q61K) cells, three days, read-out: Calu-6 anti-proliferative activity IC50
Method: Experiments for Ca1u-6 (Kras^Q61K) Antiproliferative Activity
(1) cell medium: 89% EMEM, 10% fetal bovine serum and 1% penicillin-streptomycin;
(2) the original medium in the cell culture flask was removed; the cells were digested with trypsin and then counted; and the cell suspension was diluted with the medium to a cell density of 3.75×10^4 cells per milliliter required for plating;
as §5
the compounds were subjected to a gradient dilution and then supplemented using Echo; and the cell plate was put back into the incubator for three days.
as §6

[6] = In vivo pharmacokinetics in mice; conditions: mouse, plasma, female CD-1 mice; for AUC: read-out: Curve area AUC
Source text: Experiments for In Vivo Pharmacokinetics in Mice
2) Experimental animals: 4 female CD-1 mice, which were divided into 2 groups, 2 mice in each group;
3) Drug formulation: An appropriate amount of the drug was weighed and dissolved in an aqueous solution of solutol (5% by volume), DMSO (5% by volume) and PEG-300 (25% by volume) for injection administration. An appropriate amount of the drug was weighed and dispersed in a 5% solutol aqueous solution (80% by volume), and then PEG-400 (20% by volume) was added; the mixture was mixed well and used for intragastric administration. Solutol is polyethylene glycol-15-hydroxystearate.
The animals in the first group were administered the compound at a dose of 2 mg/kg at a concentration of 1 mg/mL by intravenous administration. Plasma samples were collected from the animals at 0.117, 0.333, 1, 2, 4, 7 and 24 hours after administration. The animals in the second group were administered the compound at a dose of 100 mg/kg at a concentration of 10 mg/mL by intragastric administration. Plasma samples were collected from the animals at 0.0833, 0.25, 0.5, 1, 2, 4, 6, 8 and 24 hours after administration. The drug concentration at each point was determined by the LC-MS/MS method, and kinetic parameters of the tested drug were as follows: […]

[7] = tested on: human lung cancer Ca1u-6 subcutaneous xenograft tumor; assay: In vivo pharmacodynamics, human lung cancer Ca1u-6 subcutaneous xenograft tumor BALB/c nude mouse model; conditions: 100 mg/kg PO QD × 21 days, Ca1u-6 xenograft, BALB/c nude mice
Method: When the cell saturation was 80% to 90%, and the number reached the requirement, the cells were collected, counted and inoculated.
Tumor diameter was measured twice a week with a vernier caliper.
TGI (%) reflected the tumor growth inhibition rate.

[8] = Homo sapiens, HCT-116, 1 h, HCT116 (Kras^G13D) cells
[9] = Homo sapiens, Calu-6, 1 h, Ca1u-6 (Kras^Q61K) cells
[10] = Homo sapiens, HCT-116, HCT116 (Kras^G13D) cells

Compound	IC50 ([2]; Homo sapiens, 72 h) [nM]	IC50 [3] [nM]	IC50 [4, 9] [nM]	IC50 ([5]; Homo sapiens, Calu-6, 72 h) [nM]	further results
Cc1ccc(NC(=O)c2ccnc(C(F)(F)F)c2)cc1-c1cc(OCCO)nc(C23CCOCC2C3)c1 (single isomer, unassigned) [Compound 1A]	600	2.5	220	1200	IC50 [1, 8]: 140 nM
Cc1ccc(NC(=O)c2ccnc(C(F)(F)F)c2)cc1-c1cc(OCCO)nc(C23CCOCC2C3)c1 (single isomer, unassigned) [Compound 1B]		2			IC50 ([1]; HCT116 (Kras^G13D) cells): 220 nM; IC50 [2]: 600 nM; IC50 ([4]; Ca1u-6 (Kras^Q61K) cells): 250 nM; IC50 [5]: 960 nM
Cc1ccc(NC(=O)c2ccnc(C(F)(F)F)c2)cc1-c1cc(N(C)CCO)nc(C23CCOCC2C3)c1 (stereo not drawn) [Compound 2]	2300	2.7		1100	IC50 [1, 8]: 210 nM
Cc1ccc(NC(=O)c2ccnc(C(F)(F)F)c2)cc1-c1cc(NCCO)nc(C23CCOCC2C3)c1 (stereo not drawn) [Compound 3]	2300	1.7		1400	IC50 [1, 8]: 190 nM
Cc1ccc(NC(=O)c2ccnc(C(F)F)c2)cc1-c1cc(OCCO)nc(C23CCOCC2C3)c1 (stereo not drawn) [Compound 5]	2600	1	170	4600	
Cc1ccc(NC(=O)c2ccnc(C(C)(F)F)c2)cc1-c1cc(OCCO)nc(C23CCOCC2C3)c1 (stereo not drawn) [Compound 6]	600	0.9	220	1000	
Cc1ccc(NC(=O)c2ccnc(C(F)(F)F)c2)cc1-c1cc(SCCO)nc(C23CCOCC2C3)c1 (stereo not drawn) [Compound 7]		2.5			
Cc1ccc(NC(=O)c2ccnc(C(F)(F)F)c2)cc1-c1cc(C23CCOCC2C3)cc(OCCO)n1 (stereo not drawn) [Compound 8]	1100	1.1	350	1000	
Cc1ccc(NC(=O)c2ccnc(C(F)(F)F)c2)cc1-c1cc(OC[C@H](O)CO)nc(C23CCOCC2C3)c1 (stereo partly drawn) [Compound 9]	800	1.2	180	6400	
COC[C@@H](O)COc1cc(-c2cc(NC(=O)c3ccnc(C(F)(F)F)c3)ccc2C)cc(C23CCOCC2C3)n1 (stereo partly drawn) [Compound 10]	5300	2.5		7100	
Cc1ccc(NC(=O)c2ccnc(C(F)(F)F)c2)cc1-c1cc(OCCO)nc(C23CCOCC2C3(F)F)c1 (stereo not drawn) [Compound 11]	800	2.8	430	1100	
Cc1ccc(NC(=O)c2ccnc(C(F)(F)F)c2)cc1-c1cc(N2CC(O)C2)nc(C23CCOCC2C3)c1 (stereo not drawn) [Compound 13]	200		390	200	
Cc1ccc(NC(=O)c2ccnc(C(F)(F)F)c2)cc1-c1cc(OCCO)nc(C23CCOCC2(C#N)C3)c1 (stereo not drawn) [Compound 14]	400		330	3500	
Cc1ccc(NC(=O)c2ccnc(C(F)(F)F)c2)cc1-c1cc(OCC(C)(C)O)nc(C23CCOCC2C3)c1 (stereo not drawn) [Compound 15]	900		330	4700	
Cc1ccc(NC(=O)c2ccnc(C(F)(F)F)c2)cc1-c1cc(OCCO)nc([C@]23COC[C@H]2C3)c1 [Compound 16B]	1100			600	bioavailability ([6]; oral, intragastric 100 mg/kg versus intravenous 2 mg/kg, read-out: Bioavailability F): 131%; Tmax ([6]; po, intragastric administration 100 mg/kg, read-out: Maximum concentration time Tmax): 1 h; clearance ([6]; intravenous administration 2 mg/kg, read-out: Clearance rate Cl): 25.8 mL/min/kg; Vd ([6]; intravenous administration 2 mg/kg, read-out: Distribution volume Vd): 2.75 L/kg; half-life ([6]; intravenous administration 2 mg/kg, read-out: Half-life T1/2 (converted)): 1.43 h; AUC ([6]; po, intragastric administration 100 mg/kg): 178 µM·h; Cmax ([6]; po, intragastric administration 100 mg/kg, read-out: Maximum concentration Cmax): 25 µM; AUC ([6]; intravenous administration 2 mg/kg): 2.61 µM·h; C0 ([6]; intravenous administration 2 mg/kg, read-out: Initial concentration C0): 2.01 µM; relative tumor proliferation rate T/C [7]: 11.4%; tumor growth inhibition rate TGI [7]: 99.1%; IC50 [1, 10]: 180 nM; IC50 ([4]; Homo sapiens, Calu-6, Ca1u-6 (Kras^Q61K) cells): 490 nM
Cc1ccc(NC(=O)c2ccnc(C(F)(F)F)c2)cc1-c1cc(OCCO)nc(C23COCC2C3)c1 (stereo not drawn) [Compound 16]	2200			1300	IC50 [1, 10]: 160 nM
